Some test systems named below: DU-145 prostate; EKVX NSCLC; HCC-2998 colon; HCT-15 colon; HL-60(TB) leukemia; OVCAR-3 ovarian; OVCAR-8 ovarian; RPMI-8226 leukemia; UO-31 renal; K-562 leukemia.
Holding throughout (test): DTP human tumour cell line panel, 48 h

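Five concentrations, 48 hours, 96-well plates. At the GI50, growth is halved. TGI: concentration producing complete growth inhibition.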

Usually GI50 stands for the concentration that inhibits growth by half. The TGI is the concentration at which net growth stops. Higher therefore signals less potent growth arrest. Regarding `N#Cc1nn(-c2cc(=O)[nH]c3ccc(Cl)cc23)c(N)c1C#N`, the GI50 is > 100 µM in the assay on DU-145 prostate; 11.5 µM with EKVX NSCLC; > 100 µM in the assay on HCC-2998 colon; > 100 µM in the assay on HCT-15 colon; > 100 µM in the assay with HL-60(TB) leukemia; > 100 µM in the assay on OVCAR-3 ovarian. Further, the GI50 in the assay on OVCAR-8 ovarian, with RPMI-8226 leukemia and with UO-31 renal was > 100 µM throughout. Besides, the TGI with DU-145 prostate, in the assay with EKVX NSCLC, in the assay with HCC-2998 colon, in the assay with HCT-15 colon, in the assay with HL-60(TB) leukemia and in the assay on OVCAR-3 ovarian was > 100 µM throughout. Moreover, the TGI in the assay on OVCAR-8 ovarian, in the assay with RPMI-8226 leukemia and with UO-31 renal was > 100 µM each time.

As to `COc1ccc(-c2nnc3n(C)c(=O)c4ccccc4n23)cc1N`, the GI50 in the assay with DU-145 prostate was 3.09 µM; in the assay with EKVX NSCLC, 5.87 µM; with HCC-2998 colon it was 5.29 µM; with HCT-15 colon it was 0.0498 µM; with K-562 leukemia, 0.0395 µM; in the assay with OVCAR-3 ovarian, 0.0474 µM. Besides, the GI50 in the assay on OVCAR-8 ovarian was 4.94 µM; in the assay with RPMI-8226 leukemia, 3.88 µM; in the assay with UO-31 renal, 4.96 µM. Besides, the TGI in the assay on DU-145 prostate, with EKVX NSCLC, with HCC-2998 colon, in the assay with HCT-15 colon, in the assay on K-562 leukemia and in the assay on OVCAR-3 ovarian was > 100 µM each time. For the same molecule, the TGI in the assay on OVCAR-8 ovarian, in the assay on RPMI-8226 leukemia and in the assay with UO-31 renal was > 100 µM throughout.

As to `N=c1c2c(-c3ccccc3)c(-c3ccccc3)n(Cc3ccccc3)c2ncn1C1CCC(O)CC1` (stereo not drawn), the 50% growth inhibitory concentration (GI50) with DU-145 prostate was 0.351 µM; in the assay with HCC-2998 colon, 1.06 µM; in the assay on HCT-15 colon it was 0.27 µM; with HL-60(TB) leukemia, 1.19 µM; in the assay with K-562 leukemia, 0.0976 µM; in the assay on OVCAR-3 ovarian, 0.488 µM. The GI50 is 0.072 µM in the assay with OVCAR-8 ovarian, 0.318 µM with RPMI-8226 leukemia and 0.258 µM with UO-31 renal. The TGI in the assay with DU-145 prostate is 15.3 µM; in the assay on HCC-2998 colon, 5.03 µM; with HCT-15 colon, 14.7 µM; in the assay on HL-60(TB) leukemia it was 3.66 µM; in the assay on K-562 leukemia, 2.64 µM; in the assay with OVCAR-3 ovarian, 5.63 µM. Further, the TGI amounted to 19 µM in the assay on OVCAR-8 ovarian, 4.12 µM with RPMI-8226 leukemia and 1.65 µM in the assay on UO-31 renal.

For `COc1cc(C(=O)N2CCN(C(=O)c3cc(OC)c(OC)c(OC)c3)C2=S)cc(OC)c1OC`, the GI50 with DU-145 prostate is 13.6 µM; in the assay with HCC-2998 colon it was 19 µM; in the assay on HCT-15 colon it was 20.2 µM; in the assay with HL-60(TB) leukemia, 16 µM; in the assay on K-562 leukemia, 24.9 µM; in the assay on OVCAR-3 ovarian, 15.2 µM. Moreover, the GI50 with OVCAR-8 ovarian is 21.9 µM. The TGI in the assay with DU-145 prostate was 27.7 µM; in the assay on HCC-2998 colon, 40 µM; with HCT-15 colon, 47.4 µM; in the assay with HL-60(TB) leukemia it was 34.3 µM; in the assay with K-562 leukemia it was > 100 µM; with OVCAR-3 ovarian, 29.6 µM. Besides, the TGI in the assay on OVCAR-8 ovarian was 45.9 µM; with RPMI-8226 leukemia, 26.1 µM; with UO-31 renal, 12.8 µM.

Take `COc1ccc(OCC(=O)O)c2c1CCCC2=O`: the total growth inhibition concentration (TGI) in the assay on EKVX NSCLC, with HCC-2998 colon, in the assay with HCT-15 colon, in the assay with HL-60(TB) leukemia, in the assay on K-562 leukemia and in the assay with OVCAR-3 ovarian was > 100 µM throughout. For the same molecule, the total growth inhibition concentration (TGI) with OVCAR-8 ovarian, in the assay with RPMI-8226 leukemia and in the assay with UO-31 renal was > 100 µM throughout.

Turning to `O=C(Nc1cccc(C(F)(F)F)c1)c1ccc(NC2=C(Cl)C(=O)N(Cc3ccc(Cl)cc3Cl)C2=O)cc1`, the GI50 with DU-145 prostate is 11.8 µM; in the assay with EKVX NSCLC it was 20.3 µM; in the assay with HCT-15 colon it was 2.31 µM; in the assay with HL-60(TB) leukemia, 2.72 µM; with K-562 leukemia it was 1.83 µM; in the assay on OVCAR-3 ovarian it was 15.3 µM. Also, the GI50 in the assay on OVCAR-8 ovarian was 3.42 µM; in the assay with RPMI-8226 leukemia, 2.29 µM. Further, the TGI in the assay on DU-145 prostate was found to be 30.2 µM; in the assay with EKVX NSCLC, 48.6 µM; with HCT-15 colon it was 5.66 µM; in the assay on HL-60(TB) leukemia, 12.4 µM; in the assay on K-562 leukemia, 4.49 µM; in the assay on OVCAR-3 ovarian it was 30.9 µM. Further, the TGI in the assay on OVCAR-8 ovarian was 19.7 µM; with RPMI-8226 leukemia, 5.08 µM.

As for `COc1ccc(CCN(C)C2CCC(C#N)(c3ccc(OC)c(OC)c3)CC2)cc1OC` (stereo not drawn), the TGI with EKVX NSCLC, in the assay with HCC-2998 colon, with HCT-15 colon, in the assay on HL-60(TB) leukemia, in the assay on K-562 leukemia and in the assay with OVCAR-3 ovarian was > 100 µM throughout. In addition, the TGI in the assay with OVCAR-8 ovarian, in the assay with RPMI-8226 leukemia and in the assay on UO-31 renal was > 100 µM throughout.

On to `COc1cnc2c(c1)C(=O)c1c-2n(CCCNC2=NCCS2)c(=O)c2cc([N+](=O)[O-])ccc12`, for which the GI50 in the assay with DU-145 prostate was < 0.01 µM; with EKVX NSCLC, 1.01 µM; in the assay on HCC-2998 colon, 1.03 µM; with HCT-15 colon, 1.17 µM; with OVCAR-3 ovarian, 0.137 µM; with UO-31 renal, < 0.01 µM. The TGI stood at 1.38 µM in the assay on DU-145 prostate; 2.82 µM in the assay with EKVX NSCLC; 2.45 µM in the assay on HCC-2998 colon; 2.66 µM in the assay on HCT-15 colon; 1.81 µM with OVCAR-3 ovarian; 1.19 µM in the assay with UO-31 renal.

`Cc1nc(Nc2cccnc2)sc1C(=O)/C=C/c1ccc(F)cc1`: the GI50 in the assay with DU-145 prostate is 3.48 µM; in the assay on EKVX NSCLC, 5.15 µM; in the assay on HCC-2998 colon it was 4.09 µM; with HCT-15 colon it was 2.14 µM; in the assay with K-562 leukemia, 2.78 µM; with OVCAR-3 ovarian it was 3.14 µM. The values for the GI50 with OVCAR-8 ovarian, with RPMI-8226 leukemia and in the assay with UO-31 renal were 3.92 µM, 2.69 µM and 2.81 µM, respectively. The TGI with DU-145 prostate is 14.8 µM; with EKVX NSCLC, > 100 µM; with HCC-2998 colon it was 15.5 µM; with HCT-15 colon it was 10.2 µM; in the assay with K-562 leukemia it was > 100 µM; in the assay with OVCAR-3 ovarian it was 12.8 µM. Further, the concentration for total growth inhibition (TGI) in the assay with OVCAR-8 ovarian was > 100 µM; in the assay with RPMI-8226 leukemia it was 15.2 µM; with UO-31 renal, 16.9 µM.

For the molecule `CC(C)C1=Cc2ccc3c(c2C(=O)C1=O)CCCC3(C)C`, the TGI is 28.6 µM in the assay with EKVX NSCLC; 32.7 µM in the assay on HCC-2998 colon; 4.42 µM with HCT-15 colon; > 100 µM in the assay on HL-60(TB) leukemia; > 100 µM with K-562 leukemia; 6.71 µM with OVCAR-3 ovarian. Besides, the TGI in the assay with OVCAR-8 ovarian worked out at 10 µM; with RPMI-8226 leukemia, 5.17 µM; in the assay with UO-31 renal it was 13.2 µM.
